Source: ChEMBL document CHEMBL3352802, “Injury-induced biosynthesis of methyl-branched polyene pigments in a white-rotting basidiomycete” (J Nat Prod, 2014)

Assays:
HUVEC = test: Antiproliferative activity against HUVEC cells after 72 hrs; assay type: functional; settings: Homo sapiens
K562 = test: Antiproliferative activity against human K562 cells after 72 hrs; assay type: functional; settings: K562, 72 h
[1] = Cytotoxicity against human HeLa cells assessed as cell death; assay type: cell-based

| GI50 (K562) [µM] | Structure (SMILES) | GI50 (HUVEC) [µM] | CC50 [1] [µM] |
| --- | --- | --- | --- |
| 15.4 | CC(=O)/C(C)=C/C=C/C=C\C=C\C=C\C=C\C=C\C=C/CC(=O)O | 71.6 | 44.1 |
| 1.1 | CC(=O)/C(C)=C/C=C/C=C\C=C\C=C\C=C\C=C\C=C/C=C/CC(=O)O | 17.4 | 45.1 |
| 3.3 | CC(=O)[C@]1(O)Cc2c(O)c3c(c(O)c2[C@@H](O[C@H]2C[C@H](N)[C@H](O)[C@H](C)O2)C1)C(=O)c1ccccc1C3=O [IDARUBICIN] | – | – |

The remaining lines, values behind:

| Structure (SMILES) | GI50 (K562) [µM] | GI50 (HUVEC) [µM] | CC50 [1] [µM] |
| --- | --- | --- | --- |
| CCc1c2c(nc3ccc(OC(=O)N4CCC(N5CCCCC5)CC4)cc13)-c1cc3c(c(=O)n1C2)COC(=O)[C@]3(O)CC [IRINOTECAN] | 1.9 | – | – |
| CC/C(=C(\c1ccccc1)c1ccc(OCCN(C)C)cc1)c1ccccc1 [TAMOXIFEN] | 5.2 | – | – |
